Reference: US11465993B2, “Water soluble novel cyanine fluorophore with tunable properties between near IR and SWIR region for in vivo imaging” (The USA, as represented by the Secretary, Department of …, priority 2018, dated 2022)

Tests used:
[1] = Emission (fluorescence) spectra of cyanine fluorophores in different solvents
[2] = Absorbance spectra of cyanine fluorophores in different solvents (absorbance maximum, molar absorptivity)
[3] = Solubility and aggregation in PBS, serum or organic solvent; details: for aggregation: PBS and serum; for solubility: medium as stated in the value
[4] = pH 7.4 PBS, excitation wavelength per compound (figure legends)
[5] = pH 7.4 PBS, at wavelength of maximum absorbance

Row | emission maximum (λmax, emiss) ([1]; acetonitrile) [nm] | absorbance maximum (λmax, abs) ([2]; acetonitrile) [nm] | emission maximum (λmax, emiss) ([1]; 0.1% formic acid in acetonitrile, excitation at 800 nm) [nm] | absorbance maximum (λmax, abs) ([2]; 0.1% formic acid in acetonitrile) [nm] | emission maximum (λmax, emiss) ([1]; dichloromethane) [nm] | absorbance maximum (λmax, abs) ([2]; dichloromethane) [nm] | molar absorptivity (ε) ([2]; dichloromethane) | Compound | emission maximum (λmax, emiss) ([1]; 10% (v/v) FBS in pH 7.4 PBS) [nm] | emission maximum (λmax, emiss) ([1]; methanol) [nm] | emission maximum (λmax, emiss) [1, 4] [nm] | absorbance maximum (λmax, abs) ([2]; 10% (v/v) FBS in pH 7.4 PBS) [nm] | molar absorptivity (ε) ([2]; 10% (v/v) FBS in pH 7.4 PBS) | absorbance maximum (λmax, abs) ([2]; methanol) [nm] | molar absorptivity (ε) ([2]; methanol) | absorbance maximum (λmax, abs) ([2]; pH 7.4 PBS) [nm] | aggregation [3] | molar absorptivity (ε) [2, 5] | solubility [3]
1 | – | – | – | – | – | – | – | CC1(C)C(/C=C/C2=C3Oc4ccccc4OC4=C3C(CC2)CC/C4=C\C=C2\N(CCCCS(=O)(=O)[O-])c3ccccc3C2(C)C)=[N+](CCCCS(=O)(=O)[O-])c2ccccc21.[Na+] (centres unmarked) [BisSO3-NIR-890] | 900 | 890 | 890 | 877 | 187,000 M^−1cm^−1 | 860 | 275,000 M^−1cm^−1 | 689 | – | – | –
2 | – | – | – | – | – | – | – | CC1(C)C(/C=C/C2=C3Oc4ccc(C(=O)O)cc4OC4=C3C(CC2)CC/C4=C\C=C2\N(CCCCS(=O)(=O)[O-])c3ccc(S(=O)(=O)[O-])cc3C2(C)C)=[N+](CCCCS(=O)(=O)[O-])c2ccc(S(=O)(=O)[O-])cc21.[Na+].[Na+].[Na+] (centres unmarked) [Compound 6] | 896 | 896 | 896 | 868 | 192,000 M^−1cm^−1 | 866 | 208,000 M^−1cm^−1 | 860 | only moderate aggregation | 191,000 M^−1cm^−1 | –
3 | – | – | – | – | – | – | – | CC1(C)C(/C=C/C2=C3C4=C(/C(=C/C=C5/N(CCCCS(=O)(=O)O)c6ccc(S(=O)(=O)[O-])cc6C5(C)C)CCC4CC2)c2cc(C(=O)O)ccc23)=[N+](CCCCS(=O)(=O)O)c2ccc(S(=O)(=O)O)cc21.N.N.N (centres unmarked) [Compound 8] | 1086 | 1103 | 1084 | 1062 | 99,000 M^−1cm^−1 | 1072 | 117,000 M^−1cm^−1 | 1058 | – | 70,000 M^−1cm^−1 | water-soluble
4 | – | – | – | – | – | – | – | CC1(C)C(/C=C/C2=C3Oc4ccc(C(=O)N(CCCS(=O)(=O)O)CCC(=O)O)cc4OC4=C3C(CC2)CC/C4=C\C=C2\N(CCCCS(=O)(=O)O)c3ccc(S(=O)(=O)[O-])cc3C2(C)C)=[N+](CCCCS(=O)(=O)O)c2ccc(S(=O)(=O)O)cc21.N.N.N.N (centres unmarked) [Compound 10] | 900 | 896 | 896 | 871 | 137,000 M^−1cm^−1 | 869 | 187,000 M^−1cm^−1 | 862 | eliminated aggregation in both PBS and serum | 145,000 M^−1cm^−1 | –
5 | 780 | 600 | – | – | – | – | – | CN1/C(=C/C=C2\CCC3CCC(C=O)=C4C3=C2c2ccccc24)C(C)(C)c2ccccc21 (centres unmarked) [Compound 23] | – | – | – | – | – | – | – | – | – | – | –
6 | – | – | – | – | – | – | – | CN1/C(=C/C=C2\CCC3CCC(/C=C/C4=[N+](C)c5ccccc5C4(C)C)=C4C3=C2c2ccccc24)C(C)(C)c2ccccc21 (centres unmarked) [Compound 25] | – | 1110 | – | – | – | 1066 | – | – | – | – | –
7 | 720 | 540 | 906 | 872 | – | – | – | CCCC/N=C/C1=C2C3=C(/C(=C/C=C4/N(C)c5ccccc5C4(C)C)CCC3CC1)c1ccccc12 (centres unmarked) [Compound 26] | – | – | – | – | – | – | – | – | – | – | –
8 | – | – | – | – | 990 | 940 | 134,658 M^−1cm^−1 | CN1/C(=C/C=C2\CCC3CCC(/C=C/C4=[N+](C)c5ccccc5C4(C)C)=C(Cl)C3=C2Cl)C(C)(C)c2ccccc21 (centres unmarked) [N-methyl-NIR-990] | – | 960 | – | – | – | 922 | 46,886 M^−1cm^−1 | – | – | – | organic soluble
9 | – | – | – | – | – | – | – | CC1(C)C(/C=C/C2=C3Oc4ccc(CCC(=O)O)cc4OC4=C3C(CC2)CC/C4=C\C=C2\N(CCCCS(=O)(=O)[O-])c3ccc(S(=O)(=O)[O-])cc3C2(C)C)=[N+](CCCCS(=O)(=O)[O-])c2ccc(S(=O)(=O)[O-])cc21.[Na+].[Na+].[Na+] (centres unmarked) [NIR-900-Et] | 900 | 890 | 900 | 864 | 148,000 M^−1cm^−1 | 860 | 253,000 M^−1cm^−1 | 856 | – | 172,000 M^−1cm^−1 | –
10 | – | – | – | – | – | – | – | CC1(C)C(/C=C/C2=C3Sc4ccccc4SC4=C3C(CC2)CC/C4=C\C=C2\N(CCCCS(=O)(=O)[O-])c3ccc(S(=O)(=O)[O-])cc3C2(C)C)=[N+](CCCCS(=O)(=O)[O-])c2ccc(S(=O)(=O)[O-])cc21.[Na+].[Na+].[Na+] (centres unmarked) [NIR-950] | 955 | 960 | 950 | 902 | 128,000 M^−1cm^−1 | 890 | 193,000 M^−1cm^−1 | 880 | – | 79,000 M^−1cm^−1 | –
